Each structure is given as a SMILES string. Where a name gives a salt, the structure may show the parent alone. Read-outs that look alike come from different tables or passages of the source.

Here are results for 5 molecules from patent US6656949B1, “4-anilinofuro [3,2-c] quinoline derivatives, and preparation processes and uses of the same” (Kaohsiung Medical University, priority 2002, dated 2003).

Data set [1] relates to IGROV1, OVCAR-3, OVCAR-4, OVCAR-5, OVCAR-8, and SK-OV-3 of ovarian cancer. The data set can be described thus: In vitro anticancer assay (NCI tumor cells screen), ovarian cancer panel. The conditions noted are these: ovarian cancer cell lines, read-out: GI50 (drug molar concentration causing 50% cell growth inhibition), Ovarian Cancer. In kind it is cell-based, human.
Data set [2] deals with MCF7, MCF7/ADR-RES, MDA-MB-231/ATCC, HS 578T, MDA-MB-435, MDA-N, and T-47D of breast cancer. The data set can be described thus: In vitro anticancer assay (NCI tumor cells screen), breast cancer panel. In kind it is cell-based, human. The conditions noted are these: breast cancer cell lines, read-out: GI50 (drug molar concentration causing 50% cell growth inhibition), Breast Cancer.

For data set [3], the system named is COLO 205, HCC-2998, HCT-116, HCT-15, HT29, KM12, and SW-620 of colon cancer. The data set is described as follows: In vitro anticancer assay (NCI tumor cells screen), colon cancer panel. Format: cell-based, human. The following applies: colon cancer cell lines, read-out: GI50 (drug molar concentration causing 50% cell growth inhibition), Colon Cancer.
Data set [4] deals with CCRF-CEM, HL-60 (TB), K-562, MOLT-4, RPMI-8226, and SR of leukemia. The data set can be described thus: In vitro anticancer assay (NCI tumor cells screen), leukemia panel. In kind it is cell-based. The following applies: leukemia cell lines, read-out: GI50 (drug molar concentration causing 50% cell growth inhibition), Leukemia.
In data set [5] the test system is PC-3 and DU-145 of prostate cancer. The data set can be described thus: In vitro anticancer assay (NCI tumor cells screen), prostate cancer panel. Format: cell-based, human. The following applies: prostate cancer cell lines, read-out: GI50 (drug molar concentration causing 50% cell growth inhibition), Prostate Cancer.
Data set [6] concerns A549/ATCC, EKVX, HOP-62, HOP-92, NCI-H226, NCI-H23, NCI-H322M, and NCI-H522 of non-small cell lung cancer. The data set is described as follows: In vitro anticancer assay (NCI tumor cells screen), lung cancer panel. Format: cell-based, human. The conditions noted are these: non-small cell lung cancer cell lines, read-out: GI50 (drug molar concentration causing 50% cell growth inhibition), Lung Cancer.

The subject of data set [7] is LOX IMVI, MALME-3M, M14, SK-MEL-2, SK-MEL-28, SK-MEL-5, UACC-62, and UACC-257 of melanoma. The data set is described as follows: In vitro anticancer assay (NCI tumor cells screen), melanoma panel. In kind it is cell-based, human. The conditions noted are these: melanoma cell lines, read-out: GI50 (drug molar concentration causing 50% cell growth inhibition), Melanoma.

For data set [8], the system named is 60 human tumor cell lines. The data set is described as follows: In vitro anticancer assay (NCI tumor cells screen), mean over 60 cell lines. In kind it is cell-based. The conditions noted are these: mean values over 60 cell lines tested.
In data set [9] the test system is 786-0, A498, ACHN, CAKI-1, RXF 393, SN12C, TK-10, and UO-31 of renal cancer. The data set is described as follows: In vitro anticancer assay (NCI tumor cells screen), renal cancer panel. Format: cell-based, human. The following applies: renal cancer cell lines, read-out: GI50 (drug molar concentration causing 50% cell growth inhibition), Renal Cancer.
In data set [10] the test system is SF-268, SF-295, SF-539, SNB-19, SNB-75, and U251 of CNS cancer. The data set can be described thus: In vitro anticancer assay (NCI tumor cells screen), CNS cancer panel. Format: cell-based, human. The conditions noted are these: CNS cancer cell lines, read-out: GI50 (drug molar concentration causing 50% cell growth inhibition), CNS Cancer.
The subject of another data set is UO-31. The data set can be described thus: In vitro anticancer assay (NCI tumor cells screen), UO-31. Format: cell-based. The following applies: Homo sapiens; renal cancer cell line UO-31; read-out: GI50 against UO-31.
A further data set has as its system UACC-62. The data set is described as follows: In vitro anticancer assay (NCI tumor cells screen), UACC-62. Format: cell-based. The following applies: Homo sapiens; melanoma cell line UACC-62; read-out: GI50 against UACC-62.
A further data set relates to UACC-257. The data set can be described thus: In vitro anticancer assay (NCI tumor cells screen), UACC-257. The following applies: Homo sapiens; melanoma cell line UACC-257; read-out: GI50 against UACC-257. In kind it is cell-based.

For `CC(=NO)c1cccc(Nc2nc3ccccc3c3occc23)c1` (as salt: HCl) [Compound 4, 1-[3-(furo[3,2-c]quinolin-4-ylamino)phenyl]ethanone oxime], the melting point (commonly the temperature of the solid-liquid transition) is 164 °C (dec.).
`CON=C(C)c1cccc(Nc2nc3ccccc3c3occc23)c1` (as salt: HCl) [Compound 5, 1-[3-(furo[3,2-c]quinolin-4-ylamino)phenyl]ethanone O-methyloxime] returned a melting point of 222 to 223 °C.
With `CC(=O)c1cccc(Nc2nc3ccccc3c3occc23)c1` [Compound 3], the GI50 in data set [1] came out at 28.4 µM; in data set [2] it was 34 µM; in [3], 42.8 µM; in [4] it was 91.2 µM; in data set [5] it was 32.5 µM; in [6] it was 15.5 µM. In addition, the GI50 amounted to 40.2 µM in data set [7], 22.5 µM in data set [8], 16.1 µM in data set [9] and 19.1 µM in data set [10].
Take `CC(=NO)c1cccc(Nc2nc3ccccc3c3occc23)c1` [Compound 4, 1-[3-(furo[3,2-c]quinolin-4-ylamino)phenyl]ethanone oxime]: the GI50 in [1] (Homo sapiens) was 14.5 µM; with UO-31, 0.03 µM; in data set [2] (Homo sapiens), 12 µM; in data set [3] (Homo sapiens), 10.3 µM; in [4] (Homo sapiens) it was 9.26 µM; in data set [5] (Homo sapiens, DU-145), 12.7 µM. Moreover, the GI50 in [6] (Homo sapiens) is 8.98 µM; in [7] (Homo sapiens) it was 9.82 µM; in data set [8] (Homo sapiens), 7.8 µM; in [9] (Homo sapiens) it was 10.3 µM; in data set [10] (Homo sapiens), 14.8 µM; in the data set on UACC-62, < 0.01 µM. Also, the GI50 in the data set with UACC-257 was < 0.01 µM.
`CON=C(C)c1cccc(Nc2nc3ccccc3c3occc23)c1` [Compound 5, 1-[3-(furo[3,2-c]quinolin-4-ylamino)phenyl]ethanone O-methyloxime]: the GI50 in data set [1] (Homo sapiens) was 15.2 µM; in the data set with UO-31, < 0.01 µM; in [2] (Homo sapiens), 13.1 µM; in data set [3] (Homo sapiens), 10.3 µM; in data set [4] (Homo sapiens), 15.4 µM; in data set [5] (Homo sapiens, DU-145), 15.2 µM. For the same molecule, the GI50 was 10.8 µM in data set [6] (Homo sapiens); 11 µM in data set [7] (Homo sapiens); 8.78 µM in [8] (Homo sapiens); 10.1 µM in data set [9] (Homo sapiens); 14.8 µM in [10] (Homo sapiens); < 0.01 µM in the data set with UACC-62. Also, in the data set on UACC-257, the GI50 came out at 0.042 µM.
